What was measured:
Format in all cases: cell-based
[1] = test system: SPI1 type III protein secretion system (SopE‘-’Bla secretion); test: Primary assay: Type III protein secretion of the chimeric SopE‘-’Bla polypeptide (nitrocefin hydrolysis); conditions: Salmonella enterica, read-out: SopE IC50(uM)
From the text: Primary assay: Type III protein secretion of the chimeric SopE‘-’Bla polypeptide by Salmonella enterica. This procedure is a cell-based assay that measures the type III-dependent secretion by Salmonella enterica of a plasmid-encoded chimeric polypeptide whose synthesis can be regulated, and which is endowed with an enzymatic activity that can be monitored colorimetrically by hydrolysis of a substrate that is unable to penetrate into the bacterial cytoplasm within the time constraints of the reaction. Thus, the colorimetric reaction is not influenced by SopE‘-’Bla polypeptide in the bacterial cytoplasm. Instead, it effectively measures the amount of polypeptide that has been secreted from the S. enterica cytoplasm to the extracellular medium via type III system protein secretion.
The SopE‘-’Bla recombinant polypeptide consists of two functionally distinct domains spliced together. The N-terminus domain is encoded by a polynucleotide region specifying the signal for type III secretion of the SopE polypeptide of S. enterica, an effector of the SPI1 type III protein secretion system. The C-terminus domain of SopE‘-’Bla consists of a 263 amino acid peptide sequence that corresponds to the TEM-1 β-lactamase expressed by plasmid pBR322 but without its N-terminal signal sequence. The TEM-1 β-lactamase part of the SopE‘-’Bla chimeric polypeptide is used as a reporter enzyme. It is capable of hydrolyzing nitrocefin resulting in a product whose accumulation can be monitored by colorimetric detection. The secretion of the SopE‘—’Bla chimeric polypeptide from the cytoplasm to the extracellular medium is dependent on type III protein secretion.
For this procedure, cells grown under conditions known to favor a functional SPI1 secretion system are induced for expression of the SopE‘-’Bla protein and grown either in the presence or in the absence of putative inhibitors for determined time. Nitrocefin is then added to the various cultures and its hydrolysis are used for quantitation. An inhibitor of Type III protein secretion is generally a compound that reduces the signal of the enzymatic reaction by decreasing the amount of SopE‘-’Bla secreted into the extracellular medium.

[2] = test system: SPI1 type III protein secretion system (SipB secretion); test: Secondary assay: Type III-dependent protein secretion of the SipB polypeptide (immunoblot); conditions: Salmonella enterica, read-out: SipB IC50(uM)
Procedure: Secondary assay: Type III-dependent protein secretion of the SipB polypeptide by S. enterica. The SipB protein of S. enterica is another effector of the SPI1 type III protein secretion system from S. enterica. In this cell-based procedure, the Type III-dependent secretion of SipB from the bacterial cytoplasm to the extracellular medium was measured through its reactivity with a cognate mouse monoclonal.
Salmonella enterica cells growing either in the presence or in the absence of inhibitors are induced for the production of SipB. Following an established period of growth the cells are sedimented and the amount of SipB present in the supernatant is quantified with a scanning imager following application of immunoblot techniques. Detection may employ an anti-SipB mouse monoclonal antibody (e.g., obtained from Jorge Galan, SUNY at Stony Brook, N.Y.) followed by treatment with commercially available sheep anti-mouse polyclonal antibody conjugated with horseradish peroxidase. Thereafter the membrane is treated with a peroxidase chemiluminescent substrate and exposed to film for an appropriate exposure time. Inhibition may be measured relative to untreated controls.

[3] = test system: type III protein secretion system of P. aeruginosa PA103 (ExoU secretion); test: Tertiary assay: Type III-dependent secretion of ExoU by P. aeruginosa PA103 (SDS-PAGE band quantitation); conditions: Pseudomonas aeruginosa; P. aeruginosa PA103, ExoU secreted into extracellular medium
From the text: Tertiary assay: Inhibition of Type III protein secretion of effectors from a Pseudomonas aeruginosa system. Type III protein secretion is used by P. aeruginosa to secrete several essential virulence determinants. One effector of the type III protein secretion system of P. aeruginosa PA103 is the virulence determinants ExoU.
The amount of Type III-dependent secretion of ExoU by P. aeruginosa PA103 can be determined in a cell-based assay by quantification of the 73.9 kDa ExoU protein secreted into the extracellular medium. Such quantitation can be achieved by growing strain PA103 in a deferrated medium in the presence of nitrilotriacetic acid (an inducer of Type III protein secretion in P. aeruginosa) and either in the presence or absence of putative inhibitors. After a prolonged growth period, the cells are sedimented and the supernatants concentrated by ammonium sulfate precipitation. The proteins in the resuspended pellets are separated by electrophoresis on SDS-polyacrylamide gels. After staining gels with Colloidal Blue™, the 73.9 kDa ExoU band is quantitated by scanning through an imager. The effects of inhibitors on the intensity of the ExoU band may be measured relative to that of untreated controls.

O=C(O)[C@H](C[S+]([O-])Cc1ccccc1)Nc1nc(-c2ccc(C(F)(F)F)cc2)nc(N2CCN(c3ccccn3)CC2)n1 (stereo partly drawn) [Compound 10, (R)-3-Phenylmethanesulfinyl-2-[4-(4-pyridin-2-yl-piperazin-1-yl)-6-(4-trifluoromethylphenyl)[1,3,5]triazin-2-yl-amino]propionic acid]
IC50 [1]: 50.1 µM
IC50 [2]: > 100 µM
IC50 [3]: > 100 µM

O=C(O)C(CSCc1ccccc1)Nc1nc(-c2ccc(-c3ccccc3)cc2)nc(N2CCN(c3ccccn3)CC2)n1 (stereo in doubt) [Compound 2, (S)-3-Benzylsulfanyl-2-[4-biphenyl-4-yl-6-(4-pyridin-2-yl-piperazin-1-yl)-[1,3,5]triazin-2-yl-amino]propionic acid]
IC50 [1]: 6.4 µM
IC50 [2]: 36.1 µM
IC50 [3]: > 100 µM

O=C(O)C(Cc1ccc(Cl)cc1)Nc1nc(-c2ccc(-c3ccccc3)cc2)nc(N2CCN(c3ccccn3)CC2)n1 (stereo not drawn) [Compound 6, 2-[4-Biphenyl-4-yl-6-(4-pyridin-2-yl-piperazin-1-yl)[1,3,5]triazin-2-yl-amino]-3-(4-chlorophenyl)propionic acid]
IC50 [1]: 5.3 µM
IC50 [2]: 28 µM
IC50 [3]: > 100 µM

O=C(O)[C@H](C[S+]([O-])Cc1ccccc1)Nc1nc(-c2ccc(-c3ccccc3)cc2)nc(N2CCN(c3ccccn3)CC2)n1 (stereo partly drawn) [Compound 8, (R)-2-[4-Biphenyl-4-yl-6-(4-pyridin-2-yl-piperazin-1-yl)[1,3,5]triazin-2-yl-amino]-3-phenylmethanesulfinylpropionic acid]
IC50 [1]: 14.4 µM
IC50 [2]: 34 µM
IC50 [3]: > 100 µM

O=C(O)[C@H](C[S+]([O-])Cc1ccccc1)Nc1nc(-c2ccc(C(F)(F)F)cc2)nc(N2CCc3ccccc3C2)n1 (stereo partly drawn) [Compound 3, (R)-2-[4-(3,4-Dihydro-1H-isoquinolin-2-yl)-6-(4-trifluoromethylphenyl)-[1,3,5]triazin-2-yl-amino]-3-phenylmethanesulfinylpropionic acid]
IC50 [1]: 8.5 µM
IC50 [2]: 12.5 µM
IC50 [3]: > 100 µM

O=C(O)C(Cc1ccc(-c2ccc(C(F)(F)F)cc2)cc1)Nc1nc(-c2ccc(C(F)(F)F)cc2)nc(N2CCN(c3ccccn3)CC2)n1 (stereo not drawn) [Compound 5, 2-[4-(4-Pyridin-2-yl-piperazin-1-yl)-6-(4-trifluoromethylphenyl)[1,3,5]triazin-2-yl-amino]-3-(4′-trifluoromethylbiphenyl-4-yl)propionic acid]
IC50 [1]: 10.2 µM
IC50 [2]: 18.2 µM
IC50 [3]: > 100 µM

O=C(O)[C@H](CSCc1ccccc1)Nc1nc(Nc2ccc(C(F)(F)F)cc2)nc(-c2ccc3c(c2)OCO3)n1 [Compound 26, (R)-2-[4-Benzo[1,3]dioxol-5-yl-6-(4-trifluoromethylphenylamino)[1,3,5]triazin-2-yl-amino]-3-benzylsulfanylpropionic acid]
IC50 [1]: 5.8 µM
IC50 [2]: 28.1 µM
IC50 [3]: 52.1 µM

O=C(O)C(Cc1ccc(-c2ccc(-c3ccccc3)cc2)cc1)Nc1nc(-c2ccc(-c3ccccc3)cc2)nc(N2CCN(c3ccccn3)CC2)n1 (stereo not drawn) [Compound 7, 2-[4-Biphenyl-4-yl-6-(4-pyridin-2-yl-piperazin-1-yl)[1,3,5]triazin-2-yl-amino]-3[1,1′;4′,1″]terphenyl-4-yl-propionic acid]
IC50 [1]: 12.6 µM
IC50 [2]: 17.5 µM
IC50 [3]: > 100 µM

O=C(O)C(Cc1ccc(Cl)cc1)Nc1nc(-c2ccc(C(F)(F)F)cc2)nc(N2CCN(c3ccccn3)CC2)n1 (stereo not drawn) [Compound 4, 3-(4-Chlorophenyl)-2-[4-(4-pyridin-2-yl-piperazin-1-yl)-6-(4-trifluoromethylphenyl)[1,3,5]triazin-2-yl-amino]propionic acid]
IC50 [1]: 8.5 µM
IC50 [2]: 46.4 µM
IC50 [3]: > 100 µM

O=C(O)[C@H](COCc1ccccc1)Nc1nc(-c2ccc3ccccc3c2)nc(N2CCN(c3ccccn3)CC2)n1 [Compound 1, (S)-3-Benzyloxy-2-[4-naphthalen-2-yl-6-(4-pyridin-2-yl-piperazin-1-yl)-[1,3,5]triazin-2-yl-amino]propionic acid]
IC50 [1]: 12.4 µM
IC50 [2]: 64.8 µM
IC50 [3]: > 100 µM

Source: US20050250945A1, “Triazine compounds as inhibitors of bacterial type III protein secretion systems” (priority 2004, published 2005)
